Target: T1, Dimer of Gag-Pol polyprotein [489-587] (Human immunodeficiency virus 1, UniProt P12497)
T1 construct: 489-587
Experiment: Protease Inhibition Assay
Settings: pH 4.7; 37 °C
Protocol: For determination of IC50 values, HIV-1 protease was added to assay buffer containing inhibitor and the substrate (H-His-Lys-Ala-Arg-Val-Leu- (p-NO2) Phe-Glu-Ala-norleucine-Ser-NH2). The Leu- (p-NO2) Phe bond of the substrate was cleaved by the enzyme, and the substrate and products were separated by reversed-phase HPLC. Absorbance was measured at 220 nm, peak areas were determined, and percentage conversion to product was calculated.

| SMILES | IC50 [µM] |
| --- | --- |
| Nc1cccc(OCCCc2c(O)c3ccccc3oc2=O)c1 [3-[3-(3-aminophenoxy)propyl]-4-hydroxy-2H-chromen-2-one] | 6.4 |
| NC(=O)c1cccc(OCCCc2c(O)c3ccccc3oc2=O)c1 [3-[3-(4-Hydroxy-2-oxo-2H-1-benzopyran-3-yl)prpoxyl-benzamide] | 3.9 |
| O=C(O)c1cccc(OCCCc2c(O)c3ccccc3oc2=O)c1 [3-[3-(4-hydroxy-2-oxo-2H-chromen-3-yl)propoxy]benzoic acid] | 7 |
| O=c1oc2ccccc2c(O)c1CCCO [4-Hydroxy-3-(3-hydroxypropyl)-2H-1-benzopyran-2-one] | 86 |
| O=c1oc2ccccc2c(O)c1CC/C(=N/O)c1ccccc1 [4-Hydroxy-3-[3-(hydroroKyimino)-3-phenylpropyl] -2H-1-benzopyran-2-one] | 71 |
| O=c1[nH]c2ccccc2c(O)c1CCCOc1ccccc1 [4-hydroxy-3-(3-phenoxypropyl)-1,2-dihydroquinolin-2-one] | > 200 |
| O=c1oc2ccccc2c(O)c1CCCCOc1ccccc1 [4-hydroxy-3-(4-phenoxybutyl)-2H-chromen-2-one] | > 100 |
| COc1ccccc1OCCCc1c(O)c2ccccc2oc1=O [4-hydroxy-3-[3-(2-methoxyphenoxy)propyl]-2H-chromen-2-one] | 44 |
| COc1ccccc1CCCCc1c(O)c2ccccc2oc1=O [4-hydroxy-3-[4-(2-methoxyphenyl)butyl]-2H-chromen-2-one] | 1.7 |
| COc1ccc(CCCCc2c(O)c3ccccc3oc2=O)cc1 [4-hydroxy-3-[4-(4-methoxyphenyl)butyl]-2H-chromen-2-one] | > 100 |
| O=c1oc2ccccc2c(O)c1CCCOc1cccc(CO)c1 [4-hydroxy-3-{3-[3-(hydroxymethyl)phenoxy]propyl}-2H-chromen-2-one] | 2.3 |
| COc1ccccc1CCCCc1c(O)c2ccc(OCc3ccccc3)cc2oc1=O [7-(benzyloxy)-4-hydroxy-3-[4-(2-methoxyphenyl)butyl]-2H-chromen-2-one] | > 100 |
| CCOC(=O)c1cccc(OCCCc2c(O)c3ccccc3oc2=O)c1 [ethyl 3-[3-(4-hydroxy-2-oxo-2H-chromen-3-yl)propoxy]benzoate] | 1.4 |

— BindingDB's records for doi:10.1021/jm00043a006 (Parke-Davis Pharmaceutical Research, 1994)
